Assays:
nutsedge, yellow = assay: Test C pre-/postemergence herbicide test; assay type: in vivo, Cyperus esculentus
Summary of the method: (§1)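 Test compounds, formulated in a surfactant-containing non-phytotoxic solvent blend, are applied to seeded loam/sand soil (preemergence) and to young plants at the 1- to 4-leaf stage in peat-based medium (postemergence). Plants stay 13 to 15 days under greenhouse conditions, then are scored visually relative to controls, 0 = no effect, 100 = complete control.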

barnyardgrass = assay: Test B flooded paddy test; assay type: in vivo, Echinochloa crus-galli; details: 250 g ai/ha, Flood; scale of 0 to 100 where 0 is no effect and 100 is complete control
Summary of the method: (§2)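 In-water application to pots flooded 3 cm deep, plants at 2-leaf stage. Held in greenhouse 13–15 days at constant flood depth. Scored 0–100 by eye against controls.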

pigweed = assay: Test C pre-/postemergence herbicide test; assay type: in vivo, Amaranthus retroflexus
Summary of the method: as §1

corn = assay: Test C pre-/postemergence herbicide test; assay type: in vivo, Zea mays
Summary of the method: as §1

rice = assay: Test B flooded paddy test; assay type: in vivo, Oryza sativa; details: 250 g ai/ha, Flood; scale of 0 to 100 where 0 is no effect and 100 is complete control
Summary of the method: as §2

ducksalad = assay: Test B flooded paddy test; assay type: in vivo, Heteranthera limosa; details: 250 g ai/ha, Flood; scale of 0 to 100 where 0 is no effect and 100 is complete control
Summary of the method: as §2

sedge, umbrella = assay: Test B flooded paddy test; assay type: in vivo, Cyperus difformis; details: 250 g ai/ha, Flood; scale of 0 to 100 where 0 is no effect and 100 is complete control
Summary of the method: as §2

ryegrass, Italian = assay: Test C pre-/postemergence herbicide test; assay type: in vivo, Lolium multiflorum
Summary of the method: as §1

johnsongrass = assay: Test C pre-/postemergence herbicide test; assay type: in vivo, Sorghum halepense
Summary of the method: as §1

soybean = assay: Test C pre-/postemergence herbicide test; assay type: in vivo, Glycine max
Summary of the method: as §1

wheat = assay: Test A pre-/postemergence herbicide test; assay type: in vivo, Triticum aestivum
Summary of the method: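 Planted in loam–sand blend; treated the same day preemergence by directed soil spray, while separately grown plants at one- to two-leaf stage got postemergence spray. Compared visually with untreated controls after approximately 10 days; 100 means complete control.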

ragweed = assay: Test C pre-/postemergence herbicide test; assay type: in vivo, Ambrosia elatior
Summary of the method: as §1

[1] = Preemergence, 62 g ai/ha, scale 0 to 100
[2] = Preemergence, 125 g ai/ha, scale 0 to 100 (0 no effect, 100 complete control)
[3] = Preemergence, 31 g ai/ha, scale 0 to 100 (0 no effect, 100 complete control)
[4] = Preemergence, 250 g ai/ha, scale 0 to 100 (0 no effect, 100 complete control)
[5] = Postemergence, 125 g ai/ha, 0 to 100 scale, 0 no effect, 100 complete control
[6] = Postemergence, 500 g ai/ha, 0 to 100 scale (0 no effect, 100 complete control)
[7] = Preemergence, 125 g ai/ha, visual rating on 0 to 100 scale (0 no effect, 100 complete control)
[8] = preemergence, 500 g ai/ha, 0 to 100 scale
[9] = Postemergence, 31 g ai/ha, scale 0 (no effect) to 100 (complete control)
[10] = Postemergence, 62 g ai/ha, scale 0 to 100 (0 no effect, 100 complete control)
[11] = Postemergence, 125 g ai/ha, scale 0 to 100 (0 no effect, 100 complete control)
[12] = Postemergence, 250 g ai/ha, scale 0 to 100 (0 no effect, 100 complete control)
[13] = Preemergence, 31 g ai/ha, scale 0 to 100, 0 is no effect and 100 is complete control
[14] = Postemergence, 1000 g ai/ha, 0 to 100 scale (0 no effect, 100 complete control)
[15] = Preemergence, 1000 g ai/ha, visual rating on 0 to 100 scale (0 no effect, 100 complete control), approx. 10 days

O=C1NCC(c2ccc(Cl)c(F)c2)C1C(=O)Nc1ccccc1F (centres unmarked) [Compound 53]
Plant response rating, Nutsedge, Yellow (nutsedge, yellow; [1]): 20
Plant response rating, Barnyardgrass (barnyardgrass): 0
Plant response rating, Pigweed (pigweed; [1]): 25
Plant response rating, Pigweed (pigweed; [2]): 25
Corn plant response rating (corn; [3]): 10
Plant response rating, Corn (corn; [1]): 20
Plant response rating, Corn (corn; [2]): 20
Plant response rating, Corn (corn; [4]): 20
Plant response rating, Rice (rice): 0
Plant response rating, Ducksalad (ducksalad): 100
Plant response rating, Sedge, Umbrella (sedge, umbrella): 20
Plant response rating, Ryegrass, Italian (ryegrass, Italian; [1]): 0
Plant response rating, Ryegrass, Italian (ryegrass, Italian; [2]): 0
Plant response rating, Johnsongrass (johnsongrass; [1]): 0
Plant response rating, Johnsongrass (johnsongrass; [2]): 0
Plant response rating, Soybean (soybean; [1]): 15
Plant response rating, Soybean (soybean; [2]): 15
Plant response rating, Wheat (wheat; [5]): 0
Plant response rating, Wheat (wheat; [6]): 0
Wheat plant response rating (wheat; [7]): 0
Plant response rating, Wheat (wheat; [8]): 20
Plant response rating, Ragweed (ragweed; [1]): 10
Plant response rating, Ragweed (ragweed; [2]): 10

O=C1NCC(c2ccccc2)C1C(=O)Nc1ccccc1F (racemic) [Compound 81]
Plant response rating, Nutsedge, Yellow (nutsedge, yellow; [9]): 0
Plant response rating, Nutsedge, Yellow (nutsedge, yellow; [10]): 0
Plant response rating, Nutsedge, Yellow (nutsedge, yellow; [11]): 0
Plant response rating, Nutsedge, Yellow (nutsedge, yellow; [12]): 0
Nutsedge, Yellow plant response rating (nutsedge, yellow; [13]): 0
Plant response rating, Nutsedge, Yellow (nutsedge, yellow; [1]): 0
Plant response rating, Nutsedge, Yellow (nutsedge, yellow; [2]): 0
Plant response rating (scale of 0 to 100), Nutsedge, Yellow (nutsedge, yellow; Preemergence, 250 g ai/ha): 0
Plant response rating, Barnyardgrass (barnyardgrass): 20
Plant response rating, Pigweed (pigweed; [9]): 0
Plant response rating, Pigweed (pigweed; [10]): 0
Plant response rating, Pigweed (pigweed; [11]): 0
Plant response rating, Pigweed (pigweed; [12]): 0
Pigweed plant response rating (pigweed; [13]): 0
Plant response rating, Pigweed (pigweed; [1]): 0
Plant response rating, Pigweed (pigweed; [2]): 0
Plant response rating (scale of 0 to 100), Pigweed (pigweed; Preemergence, 250 g ai/ha): 0
Plant response rating, Corn (corn; [9]): 0
Plant response rating, Corn (corn; [10]): 0
Plant response rating, Corn (corn; [11]): 0
Plant response rating, Corn (corn; [12]): 0
Corn plant response rating (corn; [13]): 0
Plant response rating, Corn (corn; [1]): 0
Plant response rating, Corn (corn; [2]): 0
Plant response rating (scale of 0 to 100), Corn (corn; Preemergence, 250 g ai/ha): 0
Plant response rating, Ducksalad (ducksalad): 70
Plant response rating, Sedge, Umbrella (sedge, umbrella): 0
Plant response rating, Ryegrass, Italian (ryegrass, Italian; [9]): 0
Plant response rating, Ryegrass, Italian (ryegrass, Italian; [10]): 0
Plant response rating, Ryegrass, Italian (ryegrass, Italian; [11]): 0
Plant response rating, Ryegrass, Italian (ryegrass, Italian; [12]): 0
Ryegrass, Italian plant response rating (ryegrass, Italian; [13]): 0
Plant response rating, Ryegrass, Italian (ryegrass, Italian; [1]): 0
Plant response rating, Ryegrass, Italian (ryegrass, Italian; [2]): 0
Plant response rating (scale of 0 to 100), Ryegrass, Italian (ryegrass, Italian; Preemergence, 250 g ai/ha): 0
Plant response rating, Johnsongrass (johnsongrass; [9]): 0
Plant response rating, Johnsongrass (johnsongrass; [10]): 0
Plant response rating, Johnsongrass (johnsongrass; [11]): 0
Plant response rating, Johnsongrass (johnsongrass; [12]): 0
Johnsongrass plant response rating (johnsongrass; [13]): 0
Plant response rating, Johnsongrass (johnsongrass; [1]): 0
Plant response rating, Johnsongrass (johnsongrass; [2]): 0
Plant response rating (scale of 0 to 100), Johnsongrass (johnsongrass; Preemergence, 250 g ai/ha): 0
Plant response rating, Soybean (soybean; [9]): 0
Plant response rating, Soybean (soybean; [10]): 3
Plant response rating, Soybean (soybean; [11]): 3
Plant response rating, Soybean (soybean; [12]): 8
Soybean plant response rating (soybean; [13]): 0
Plant response rating, Soybean (soybean; [1]): 0
Plant response rating, Soybean (soybean; [2]): 0
Plant response rating (scale of 0 to 100), Soybean (soybean; Preemergence, 250 g ai/ha): 0
Plant response rating, Wheat (wheat; [5]): 0
Plant response rating, Wheat (wheat; [6]): 0
Wheat plant response rating (wheat; [7]): 0
Plant response rating, Wheat (wheat; [8]): 20
Plant response rating, Ragweed (ragweed; [9]): 0
Plant response rating, Ragweed (ragweed; [10]): 0
Plant response rating, Ragweed (ragweed; [11]): 0
Plant response rating, Ragweed (ragweed; [12]): 0
Ragweed plant response rating (ragweed; [13]): 0
Plant response rating, Ragweed (ragweed; [1]): 0
Plant response rating, Ragweed (ragweed; [2]): 0
Plant response rating (scale of 0 to 100), Ragweed (ragweed; Preemergence, 250 g ai/ha): 0

O=C1NCC(c2cc(F)c(F)c(F)c2)C1C(=O)Nc1ccccc1C(F)(F)F (racemic) [Compound 33]
Plant response rating, Nutsedge, Yellow (nutsedge, yellow; [1]): 10
Plant response rating, Barnyardgrass (barnyardgrass): 0
Plant response rating, Pigweed (pigweed; [1]): 0
Plant response rating, Pigweed (pigweed; [2]): 0
Corn plant response rating (corn; [3]): 0
Plant response rating, Corn (corn; [1]): 10
Plant response rating, Corn (corn; [2]): 20
Plant response rating, Corn (corn; [4]): 30
Plant response rating, Rice (rice): 0
Plant response rating, Ducksalad (ducksalad): 100
Plant response rating, Sedge, Umbrella (sedge, umbrella): 0
Plant response rating, Ryegrass, Italian (ryegrass, Italian; [1]): 0
Plant response rating, Ryegrass, Italian (ryegrass, Italian; [2]): 0
Plant response rating, Johnsongrass (johnsongrass; [1]): 0
Plant response rating, Johnsongrass (johnsongrass; [2]): 0
Plant response rating, Soybean (soybean; [2]): 0
Plant response rating, Wheat (wheat; [14]): 60
Plant response rating, Wheat (wheat; [15]): 50
Plant response rating, Ragweed (ragweed; [1]): 0
Plant response rating, Ragweed (ragweed; [2]): 0

Cc1ccccc1NC(=O)C1C(=O)NCC1c1cc(F)c(F)c(F)c1 (racemic) [Compound 35]
Plant response rating, Nutsedge, Yellow (nutsedge, yellow; [1]): 0
Plant response rating, Nutsedge, Yellow (nutsedge, yellow; [2]): 0
Plant response rating, Barnyardgrass (barnyardgrass): 0
Plant response rating, Pigweed (pigweed; [1]): 0
Plant response rating, Pigweed (pigweed; [2]): 0
Corn plant response rating (corn; [3]): 0
Plant response rating, Corn (corn; [1]): 0
Plant response rating, Corn (corn; [2]): 5
Plant response rating, Corn (corn; [4]): 5
Plant response rating, Rice (rice): 0
Plant response rating, Ducksalad (ducksalad): 80
Plant response rating, Sedge, Umbrella (sedge, umbrella): 0
Plant response rating, Ryegrass, Italian (ryegrass, Italian; [1]): 5
Plant response rating, Ryegrass, Italian (ryegrass, Italian; [2]): 5
Plant response rating, Johnsongrass (johnsongrass; [1]): 0
Plant response rating, Johnsongrass (johnsongrass; [2]): 0
Plant response rating, Soybean (soybean; [1]): 0
Plant response rating, Soybean (soybean; [2]): 0
Plant response rating, Wheat (wheat; [14]): 40
Plant response rating, Wheat (wheat; [15]): 0
Plant response rating, Ragweed (ragweed; [1]): 0
Plant response rating, Ragweed (ragweed; [2]): 0

Source: US10294202B2, “Pyrrolidinones as herbicides” (FMC Corporation, priority 2013, dated 2019)
